Results published in paper PMC6615261, “Repurposing Azithromycin and Rifampicin Against Gram-Negative Pathogens by Combination With Peptidomimetics” (Frontiers in Cellular and Infection Microbiology, 2019).
Like-named read-outs stand apart in the source and are kept apart here.

Columns and labels:
K. pneumoniae ST258 [1] = conditions: for Antibiotic MIC in combination (AZM): MIC of azithromycin combined with the labelled peptidomimetic; for Antibiotic MIC in combination (RIF): MIC of rifampicin combined with the labelled peptidomimetic; for Peptidomimetic MIC alone: checkerboard
Description: (§1) The potential synergistic effects in peptidomimetic-antibiotic combinations were assessed by using a two-dimensional checkerboard assay (Garcia, [2010]). Briefly, twofold dilutions of peptide and antibiotic were prepared in MBH II media along the X- and Y-axis, respectively, in 96-well plates. The inoculum was added to the plates, and subsequently these were incubated for 18–20 h. All steps for inoculum preparation and broth microdilution were in accordance with the CLSI guidelines (Clinical and Laboratory Standards Institute, [2013]). The fractional inhibitory concentration index (FICI) was calculated as [MICA(A+B)/MICA(alone)] + [MICB(A+B)/MICB(alone)], where MICA(A+B) represents the MIC of antibiotic (A) in combination with peptidomimetic (B), while MICB(A+B) represents the MIC of peptidomimetic (B) in combination with antibiotic (A). MICA(alone) and MICB(alone) represent the MIC of each compound individually. FICI values of ≤0.5 were interpreted as synergy.

E. coli ST131 [2] = conditions: for Antibiotic MIC in combination (AZM): MIC of azithromycin combined with the labelled peptidomimetic; for Antibiotic MIC in combination (RIF): MIC of rifampicin combined with the labelled peptidomimetic; for Peptidomimetic MIC alone: checkerboard
Description: as §1

P. aeruginosa ATCC 27853 [3] = conditions: for Antibiotic MIC in combination (RIF): MIC of rifampicin combined with the labelled peptidomimetic; for Peptidomimetic MIC alone: checkerboard; for Reduction of the MIC of azithromycin: P. aeruginosa, sub-MIC concentrations of peptidomimetic
Description: as §1

P. aeruginosa ATCC 27853 [4] = test: MIC by broth microdilution; format: cell-based, Pseudomonas aeruginosa; conditions: for MIC P. aeruginosa ATCC 27853: peptidomimetic alone
Description: (§2) Minimal inhibitory concentrations (MICs) of peptidomimetics, antibiotics and their combinations were determined by broth microdilution according to the Clinical Laboratory Standards Institute performance standards (Clinical and Laboratory Standards Institute, [2013]). […] Since rifampicin and azithromycin mainly are used to treat infections with Gram-positive pathogens only CLSI clinical breakpoints were available for such bacteria. […] Potentiation of additional antibiotics by peptidomimetics was determined by using commercial 96-well plates containing varied concentrations of standard antibiotics (COMPAN1F; Trek Diagnostic Systems Inc.). The peptidomimetics were added immediately prior to inoculation with pathogen, and then MICs were determined as above. The MICs of peptidomimetic/antibiotic combinations were determined according to the method above, and the concentration ratios were selected based upon checkerboard results with 2:1 and 1:4 ratio of peptidomimetic with rifampicin or azithromycin, respectively. Minimal bactericidal concentrations (MBCs) were determined by using growth-curve assay plates. MIC plates were prepared as above, and then the plates were incubated at 37°C with continuous shaking. Growth was recorded at 10 min intervals as optical density (OD) at 600 nm during 24 h. At 24 h, for wells without growth, a sample was diluted 10-fold in sterile saline (0.9% sodium chloride) and plated onto MHA, following CLSI guidelines (Clinical and Laboratory Standards Institute, [1999]).

K. pneumoniae ST258 [5] = test: MIC by broth microdilution; format: cell-based, Klebsiella pneumoniae; conditions: for Selectivity Index (SI) K. pneumoniae ST258: average of EC50 (HepG2, NIH 3T3) divided by MIC; for MIC K. pneumoniae ST258: peptidomimetic alone
Description: as §2

K. pneumoniae ST258 [6] = test: Screening of peptidomimetic-antibiotic combinations (growth / growth inhibition); format: cell-based, Klebsiella pneumoniae; set-up: key to Growth in combination with RIF / Growth in combination with AZM: Growth (+); growth inhibition (–); conditions: for Screening result with rifampicin: 0.5 μM peptidomimetic + 0.5 μg/mL rifampicin; for Growth in combination with AZM: peptidomimetic 0.5 μM + azithromycin 1 μg/mL; for Growth in combination with RIF: peptidomimetic 0.5 μM + rifampicin 0.5 μg/mL
Description: as §2

NIH 3T3 and HepG2 cells = test: Effect on viability of mammalian cells (both cell lines); format: cell-based, mouse and human
Description: (§3) NIH 3T3 and HepG2 cells (both from ATCC, Manassas, VA, USA) were cultured in flat-bottomed 96-well MicroWell™ plates (NUNC, Roskilde, Denmark) at seeding densities of ~23,000 and ~22,000 cells/well, respectively, and then cultured for 22–24 h under standard culturing conditions (37°C, 5% CO2, humidified air) to reach 80–90% confluence. NIH 3T3 were cultured in Dulbecco's modified Eagle's medium (DMEM) supplemented with 10% (v/v) newborn-calf serum (NCS) (Gibco, Paisly, UK), while HepG2 were cultured in Eagle's minimum essential medium (EMEM) supplemented with 10% (v/v) fetal bovine serum (FBS, Gibco, Paisly, UK), sodium pyruvate (1 mM), and non-essential amino acids (1%, v/v). Both culturing media were further supplemented with penicillin (100 U/mL), streptomycin (100 μg/mL), and L-glutamine (2 mM).
(§4) Effect on cell viability was determined in NIH 3T3 fibroblasts and HepG2 hepatocytes by using the MTS/PMS assay measuring metabolic activity. Briefly, the adhered cells were washed with 37°C Hanks' balanced salt solution (HBSS from Sigma-Aldrich, St. Louis, MO, USA), containing 10 mM HEPES (AppliChem, Darmstadt, Germany), and adjusted to pH 7.4, and were then exposed for 1 h to 100 μL of test compound(s) dissolved in the appropriate culturing medium without serum for each cell line. After exposure the cells were washed with HBSS containing 10 mM HEPES (pH 7.4) and 100 μL of an MTS/PMS solution, consisting of 240 μg/mL MTS (Promega, Madison, WI, USA) and 2.4 μg/mL PMS (SigmaAldrich, Buchs, Switzerland) in HBSS, was added to the cells, which then were incubated for 1 h at 37°C with horizontal shaking under light protection. Absorbance was measured at 492 nm by using a POLARstar OPTIMA plate reader (BMG Labtech, Offenburg, Germany). The relative viability was calculated according to Equation (1) with absorbance values obtained after incubation of cells with test compound; incubation with SDS (0.2%, w/v in medium) defined 100% cell death (Abspos), while the absorbance of cells incubated with medium defined 0% cell death (Absneg).
(§5) (1) Relative viability(%)=(Abssample-Abspos)/(Absneg-Abspos)×100%
(§6) EC50 values were calculated by using GraphPad Prism 7 (GraphPad Software, La Jolla, CA, USA) via fitting of the relative cell viability to the concentration of the test compound by using Equation (2):
(§7) (2) Relative viability(%)= Top-Bottom/1+10^(LogIC50-Log[peptidomimetic]) ×Hill slope
With top and bottom representing the mean highest and lowest observed values, respectively. The Hill slope represents a factor for the steepness of the linear part of the curve. […] The selectivity index was calculated as the average effect on cell viability (EC50 values for HepG2 and NIH 3T3 cells) divided by the MIC.

E. coli ST131 [7] = test: MIC by broth microdilution; format: cell-based, Escherichia coli; conditions: for MIC E. coli ST131: peptidomimetic alone
Description: as §2

[8] = MTS/PMS cell viability assay; format: cell-based; conditions: human, HepG2 hepatocytes, 1 h exposure, read-out: Cytotoxicity HepG2 EC50 ± SD
Description: as §3, §4, §5, §6, §7
(§8) With top and bottom representing the mean highest and lowest observed values, respectively. The Hill slope represents a factor for the steepness of the linear part of the curve. In order to prevent erroneous calculation, the top and bottom values were constrained to 100 and 0%, respectively. Data were collected from technical triplicates. The selectivity index was calculated as the average effect on cell viability (EC50 values for HepG2 and NIH 3T3 cells) divided by the MIC.

[9] = MTS/PMS cell viability assay; format: cell-based, mouse; conditions: mouse, NIH 3T3 fibroblasts, 1 h exposure, read-out: Cytotoxicity NIH 3T3 EC50 ± SD
Description: as §3, §4, §5, §6, §7, §8

MDR E. coli ST131 = test: Screening of peptidomimetic-antibiotic combinations (growth / growth inhibition); format: cell-based, Escherichia coli; set-up: key to Growth in combination with RIF / Growth in combination with AZM: Growth (+); growth inhibition (–); conditions: for Screening result with rifampicin: 0.5 μM peptidomimetic + 0.5 μg/mL rifampicin; for Growth in combination with AZM: peptidomimetic 0.5 μM + azithromycin 1 μg/mL; for Growth in combination with RIF: peptidomimetic 0.5 μM + rifampicin 0.5 μg/mL
Description: as §2

[10] = P. aeruginosa ATCC 27853, combined with AZM
[11] = P. aeruginosa ATCC 27853, combined with RIF
[12] = average of EC50 (HepG2, NIH 3T3) divided by MIC

Row | Structure (SMILES) | Antibiotic MIC in combination (AZM) (K. pneumoniae ST258 [1]) [µg/mL] | Antibiotic MIC in combination (RIF) (K. pneumoniae ST258 [1]) [µg/mL] | Peptidomimetic MIC alone (K. pneumoniae ST258 [1]) [µM] | Peptidomimetic MIC in combination (K. pneumoniae ST258 [1]; combined with AZM) [µM] | Peptidomimetic MIC in combination (K. pneumoniae ST258 [1]; combined with RIF) [µM] | Antibiotic MIC in combination (AZM) (E. coli ST131 [2]) [µg/mL] | Antibiotic MIC in combination (RIF) (E. coli ST131 [2]) [µg/mL] | Peptidomimetic MIC alone (E. coli ST131 [2]) [µM] | Peptidomimetic MIC in combination (E. coli ST131 [2]; combined with AZM) [µM] | Peptidomimetic MIC in combination (E. coli ST131 [2]; combined with RIF) [µM] | Antibiotic MIC in combination (RIF) (P. aeruginosa ATCC 27853 [3]; P. aeruginosa ATCC 27853) [µg/mL] | Peptidomimetic MIC alone (P. aeruginosa ATCC 27853 [3]; P. aeruginosa ATCC 27853) [µM] | Peptidomimetic MIC in combination (P. aeruginosa ATCC 27853 [3]; [10]) [µM] | Peptidomimetic MIC in combination (P. aeruginosa ATCC 27853 [3]; [11]) [µM] | Reduction of the MIC of azithromycin (P. aeruginosa ATCC 27853 [3]) | MIC P. aeruginosa ATCC 27853 (P. aeruginosa ATCC 27853 [4]) [µM] | Selectivity Index (SI) K. pneumoniae ST258 (K. pneumoniae ST258 [5]) | MIC K. pneumoniae ST258 (K. pneumoniae ST258 [5]) [µM] | Screening result with rifampicin (K. pneumoniae ST258 [6]) | Growth in combination with AZM (K. pneumoniae ST258 [6]) | also measured
1 | CC(=O)N[C@@H](CCCCN)C(=O)N(CCC(=O)N[C@@H](CCCCN)C(=O)N(CCC(=O)N[C@@H](CCCCN)C(=O)N(CCC(=O)N[C@@H](CCCCN)C(=O)N(CCC(=O)N[C@@H](CCCCN)C(=O)N(CCC(=O)N[C@@H](CCCCN)C(=O)N(CCC(=O)N[C@@H](CCCCN)C(=O)N(CCC(=O)N[C@@H](CCCCN)C(=O)N(CCC(N)=O)Cc1ccccc1)Cc1ccccc1)Cc1ccccc1)Cc1ccccc1)Cc1ccccc1)Cc1ccccc1)Cc1ccccc1)Cc1ccccc1 [Peptidomimetic 15, Ac-(Lys-βNPhe)8-NH2] | 8 | 0.5 | 32 | 0.5 | 0.5 | 1 | 0.5 | 1 | 0.13 | 0.13 | 0.5 | 1 | 0.5 | 0.5 | 32- to 512 fold | 1 | (5) | 32 | inhibit growth | + | Growth in combination with RIF (K. pneumoniae ST258 [6]): –; EC50 (NIH 3T3 and HepG2 cells): > 100 µM; MIC E. coli ST131 (E. coli ST131 [7]): 1 µM; EC50 at 1 h [8]: 121.37 ± 0.06 µM; EC50 at 1 h [9]: 217 ± 23.1 µM; Screening result with rifampicin (MDR E. coli ST131): inhibit growth; Growth in combination with AZM (MDR E. coli ST131): –; Growth in combination with RIF (MDR E. coli ST131): –
2 | C[C@@H](c1ccccc1)N(CCC(N)=O)C(=O)[C@H](CCCCNC(=N)N)NC(=O)CCN(C(=O)[C@H](CCCCN)NC(=O)CCN(C(=O)[C@H](CCCCNC(=N)N)NC(=O)CCN(C(=O)[C@H](CCCCN)NC(=O)CCN(C(=O)[C@H](CCCCNC(=N)N)NC(=O)CCN(C(=O)[C@H](CCCCN)NC(=O)CNCCCNCCCCNCCCN)[C@@H](C)c1ccccc1)[C@@H](C)c1ccccc1)[C@@H](C)c1ccccc1)[C@@H](C)c1ccccc1)[C@@H](C)c1ccccc1 [Peptidomimetic 26, Spermine-(Lys-βNspe-hArg-βNspe)3-NH2] | 8 | 0.06 | 8 | 0.5 | 0.5 | 1 | 0.5 | 1 | 0.25 | 0.25 | 0.06 | 2 | 1 | 0.5 | 32- to 512 fold | 2 | (7) | 8 | inhibit growth | + | Antibiotic MIC in combination (CLI) (K. pneumoniae ST258 [1]; MIC of CLI combined with the labelled peptidomimetic): 4 µg/mL; Peptidomimetic MIC in combination (K. pneumoniae ST258 [1]; combined with CLI): 0.5 µM; Antibiotic MIC in combination (AZM) (P. aeruginosa ATCC 27853 [3]; P. aeruginosa ATCC 27853, MIC of azithromycin combined with the labelled peptidomimetic): 0.5 µg/mL; Selectivity Index (SI) P. aeruginosa ATCC 27853 (P. aeruginosa ATCC 27853 [4]; [12]): (28); Growth in combination with RIF (K. pneumoniae ST258 [6]): –; EC50 (NIH 3T3 and HepG2 cells): 50 to 60 µM; Selectivity Index (SI) E. coli ST131 (E. coli ST131 [7]; [12]): (56); MIC E. coli ST131 (E. coli ST131 [7]): 1 µM; EC50 at 1 h [8]: 59.6 ± 0.71 µM; EC50 at 1 h [9]: 53.2 ± 2.94 µM; Screening result with rifampicin (MDR E. coli ST131): inhibit growth; Growth in combination with AZM (MDR E. coli ST131): –; Growth in combination with RIF (MDR E. coli ST131): –
